Publication PMC8145596, “Novel Chemically Modified Curcumin (CMC) Derivatives Inhibit Tyrosinase Activity and Melanin Synthesis in B16F10 Mouse Melanoma Cells” (Biomolecules, 2021)

Key:
[1] = test system: MNT-1 human melanoma cells; assay: Melanin content assay in MNT-1 cells; assay type: cell-based; details: 48 h; CMC2.24 at 20 µM; preliminary evaluation
Protocol: (§1) II. Experiments in MNT-1 human melanoma cells
(§2) MNT-1 cells (kindly provided by Dr. Michael Marks, University of Pennsylvania) were cultured using DMEM supplemented with 1 % MEM (minimum essential medium), 18 % HI-FBS, 10 % AIM-V medium (Gibco) and 1 % antibiotic mixture.
(§3) MNT-1 human melanoma cells (2 × 10^4 cells/ well) were seeded in a 96-well plate and cultured for 96 h. After this, the test compounds were added in complete medium and cultures were maintained for 48 h, followed by conducting the MTS assay to detect cytotoxicity similar to methods reports in main text. The results were expressed as % normalized to untreated control group.
(§4) MNT-1 human melanoma cells were seeded at 2.2 × 10^5 cells/well in 12-well plates and incubated for 24 hours. […] Briefly, the absorbance of melanin was measured at 475 nm and was normalized to the total protein contents and reported as relative melanin levels as a % of control.
(§5) Figure S3: Viability of MNT-1 cells treated with A) PC, CMC2.14 and CMC2.5 and B) CMC2.23 and CMC2.24 for a duration of 48 h evaluated by MTS assay; Data for A)-B) are mean ± SD of 3-4 determinations; C) Melanin content in cultures of MNT-1 cells treated for 48 h with different concentrations of PC and CMCs, Data are mean ± SD of values combined from two independent experiments. * p < 0.05 vs. control (Ctrl); One-way ANOVA with Tukey’s […]

[2] = test system: breast cancer cells; parameters: method as in PMID 31505772; details: cited from earlier work
[3] = MTS cell viability assay; assay type: cell-based, mouse; details: mouse, B16F10 mouse melanoma cells, 48 h, B16F10
Protocol: B16F10 mouse melanoma cells (CRL-6475™) were obtained from American Type Culture Collection (ATCC, Manassas, VA, USA) and cultured using Dulbecco’s Modified Eagle Medium (DMEM) supplemented with 10% heat-inactivated fetal bovine serum (HI-FBS) and 1% antibiotics (penicillin-streptomycin) in a humidified incubator with 95% air—5% CO2 at 37 °C. In order to test the four CMCs (CMC2.14, CMC2.24, CMC2.5 and CMC2.23) to that of PC, for their effects on melanin content, we first screened them for cytotoxicity using a tetrazolium assay with MTS (Promega CellTiter Aqueous One). Briefly, B16F10 cells were seeded at 4 × 10^3 cells/well in a 96-well plate for 24 h. The compounds were diluted using culture medium to yield a final DMSO in all groups of 0.16% and added to the cell monolayers in wells after 24 h. Control was treated with 0.16% DMSO. At the end of 48 h, the medium was aspirated and replaced by 100 μL of fresh medium. 20 μL of MTS reagent was then added, and the plate was incubated at 37 °C for 40 min. At this point, the absorbance of 100 μL aliquots was read at 490 nm using a microplate reader. Cell viability was calculated from the absorbance values relative to control groups and expressed in %.

[4] = test system: MNT-1 human melanoma cells; assay: MTS cytotoxicity assay in MNT-1 cells; assay type: cell-based; details: 20 µM, 48 h
Protocol: as §1, §2, §3, §4, §5

Compound	melanin inhibition in MNT-1 cells [1]	concentrations highly cytotoxic to breast cancer cells [2] [µM]	viability at 48 h, 20 µM ([3]; 20 µM) [%]	viability at 48 h, 25 µM ([3]; 25 µM) [%]	cytotoxicity in MNT-1 cells [4]
1,7-bis(4-hydroxy-3-methoxyphenyl)-1,6-heptadien-3,5-dione [PC, reference compound]	ineffective	> 10	–	–	–
COC(=O)/C(C(=O)/C=C/c1ccc(O)cc1)=C(O)\C=C\c1ccc(O)cc1 [CMC2.14]	–	–	72.2	55.5	–
O=C(/C=C/c1ccc(O)cc1)/C(C(=O)Nc1ccccc1)=C(O)/C=C/c1ccc(O)cc1 [CMC2.24]	significant attenuation of melanin levels	–	–	–	nontoxic
